Results as given in US8598365B2, “Herbicides” (Syngenta Limited, priority 2007, dated 2013).

Legend:
Type in all cases: in vivo
[1] = system: Alopecurus myosuroides (ALOMY); assay: Example B pre-emergence herbicidal activity; conditions: 312 h, rate 250 g/ha, evaluated after 13 days, read-out: Pre-Emergence Activity ALOMY (100=total damage to plant; 0=no damage to plant)
Description: (§1) Seeds of a variety of test species were sown in standard soil in pots. After cultivation for one day (pre-emergence) or after 8 days cultivation (post-emergence) under controlled conditions in a glasshouse (at 24/16° C., day/night; 14 hours light; 65% humidity), the plants were sprayed with an aqueous spray solution derived from the formulation of the technical active ingredient in acetone/water (50:50) solution containing 0.5% Tween 20 (polyoxyethelyene sorbitan monolaurate, CAS RN 9005-64-5).
(§2) The test plants were then grown in a glasshouse under controlled conditions in a glasshouse (at 24/16° C., day/night; 14 hours light; 65% humidity) and watered twice daily. After 13 days for pre and post-emergence, the test was evaluated (100=total damage to plant; 0=no damage to plant).
(§3) Alopecurus myosuroides (ALOMY), Avena fatua (AVEFA), Setaria faberi (SETFA), Echinochloa crus-galli (ECHCG), Solanum nigrum (SOLNI) and Amaranthus retoflexus (AMARE)

[2] = system: Amaranthus retoflexus (AMARE); assay: Example B pre-emergence herbicidal activity; conditions: Amaranthus retroflexus, 312 h, rate 250 g/ha, evaluated after 13 days, read-out: Pre-Emergence Activity AMARE (100=total damage to plant; 0=no damage to plant)
Description: as §1, §2, §3

Avena fatua (AVEFA) [3] = assay: Example B pre-emergence herbicidal activity; conditions: 312 h, rate 250 g/ha, evaluated after 13 days, read-out: Pre-Emergence Activity AVEFA (100=total damage to plant; 0=no damage to plant)
Description: as §1, §2, §3

[4] = system: Echinochloa crus-galli (ECHCG); assay: Example B pre-emergence herbicidal activity; conditions: 312 h, rate 250 g/ha, evaluated after 13 days, read-out: Pre-Emergence Activity ECHCG (100=total damage to plant; 0=no damage to plant)
Description: as §1, §2, §3

Setaria faberi (SETFA) [5] = assay: Example B pre-emergence herbicidal activity; conditions: 312 h, rate 250 g/ha, evaluated after 13 days, read-out: Pre-Emergence Activity SETFA (100=total damage to plant; 0=no damage to plant)
Description: as §1, §2, §3

[6] = system: Alopecurus myosuroides (ALOMY); assay: Example B post-emergence herbicidal activity; conditions: 312 h, rate 250 g/ha, evaluated after 13 days, read-out: Post-emergence activity ALOMY (100=total damage to plant; 0=no damage to plant)
Description: as §1, §2, §3

[7] = system: Amaranthus retoflexus (AMARE); assay: Example B post-emergence herbicidal activity; conditions: Amaranthus retroflexus, 312 h, rate 250 g/ha, evaluated after 13 days, read-out: Post-emergence activity AMARE (100=total damage to plant; 0=no damage to plant)
Description: as §1, §2, §3

Avena fatua (AVEFA) [8] = assay: Example B post-emergence herbicidal activity; conditions: 312 h, rate 250 g/ha, evaluated after 13 days, read-out: Post-emergence activity AVEFA (100=total damage to plant; 0=no damage to plant)
Description: as §1, §2, §3

[9] = system: Echinochloa crus-galli (ECHCG); assay: Example B post-emergence herbicidal activity; conditions: 312 h, rate 250 g/ha, evaluated after 13 days, read-out: Post-emergence activity ECHCG (100=total damage to plant; 0=no damage to plant)
Description: as §1, §2, §3

Setaria faberi (SETFA) [10] = assay: Example B post-emergence herbicidal activity; conditions: 312 h, rate 250 g/ha, evaluated after 13 days, read-out: Post-emergence activity SETFA (100=total damage to plant; 0=no damage to plant)
Description: as §1, §2, §3

Compound | pest or weed control at 250 g/ha [1] | pest or weed control at 250 g/ha [2] | pest or weed control at 250 g/ha (Avena fatua (AVEFA) [3]) | pest or weed control at 250 g/ha [4] | pest or weed control at 250 g/ha (Setaria faberi (SETFA) [5]) | pest or weed control at 250 g/ha [6] | pest or weed control at 250 g/ha [7] | pest or weed control at 250 g/ha (Avena fatua (AVEFA) [8]) | pest or weed control at 250 g/ha [9] | pest or weed control at 250 g/ha (Setaria faberi (SETFA) [10])
CCOC(=O)/C=C/OC1=C(c2nc(-c3ccc(Cl)cc3)sc2CC)C(=O)[C@H]2CC[C@@H]1C2 [Compound P5] | 100% | 0% | 30% | 40% | 100% | 100% | 0% | 90% | 100% | 100%
CCc1sc(-c2ccc(Cl)cc2F)nc1C1C(=O)[C@@H]2CC[C@@H](C2)C1=O (stereo partly shown) [Compound T26] | 90% | 0% | 60% | 100% | 100% | 100% | 40% | 100% | 100% | 100%
CCc1sc(-c2ccc(Cl)c(Cl)c2)nc1C1C(=O)[C@@H]2CC[C@@H](C2)C1=O (stereo partly shown) [Compound T22] | 70% | 20% | 20% | 80% | 100% | 90% | 0% | 90% | 90% | 90%
Cc1sc(-c2ccc(Cl)c(Cl)c2)nc1C1=C(OC(=O)C(C)(C)C)[C@H]2CC[C@H](C2)C1=O [Compound P3] | 20% | 0% | 0% | 80% | 100% | 60% | 0% | 0% | 80% | 100%
Cc1sc(-c2ccc(OC(F)F)cc2Cl)nc1C1=C(OC(=O)C(C)(C)C)[C@@H]2CC[C@@H](C2)C1=O [Compound P17] | 80% | 0% | 50% | 100% | 100% | 90% | 0% | 80% | 100% | 100%
Cc1sc(-c2ccc(OC(F)F)cc2)nc1C1C(=O)[C@@H]2CC[C@@H](C2)C1=O (stereo partly shown) [Compound T42] | 100% | 0% | 0% | 100% | 100% | 100% | 0% | 70% | 100% | 100%
Cc1sc(-c2ccc(I)cc2)nc1C1C(=O)[C@@H]2CC[C@@H](C2)C1=O (stereo partly shown) [Compound T30] | 90% | 20% | 100% | 100% | 100% | 100% | 0% | 100% | 100% | 100%
Cc1sc(-c2ccc(F)cc2)nc1C1C(=O)[C@@H]2CC[C@@H](C2)C1=O (stereo partly shown) [Compound T57] | 60% | 0% | 20% | 90% | 90% | 70% | 0% | 60% | 100% | 100%
Cc1sc(-c2ccc3c(c2)OCCO3)nc1C1C(=O)[C@@H]2CC[C@@H](C2)C1=O (stereo partly shown) [Compound T64] | 20% | 0% | 0% | 0% | 0% | 0% | 0% | 0% | 50% | 70%
O=C1C(c2nc(-c3ccc(Br)cc3)sc2CC(F)(F)F)C(=O)[C@H]2CC[C@@H]1C2 (stereo partly shown) [Compound T40] | 100% | 0% | 100% | 100% | 100% | 100% | 0% | 100% | 100% | 100%
Cc1sc(-c2ccc(Br)cn2)nc1C1C(=O)[C@@H]2CC[C@@H](C2)C1=O (stereo partly shown) [Compound T35] | 30% | 0% | 0% | 90% | 100% | 100% | 0% | 80% | 100% | 100%
CCc1sc(-c2cnc(Cl)cc2C)nc1C1C(=O)[C@@H]2CC[C@@H](C2)C1=O (stereo partly shown) [Compound T110] | 30% | 20% | 30% | 60% | 100% | 60% | 0% | 70% | 90% | 100%
CC(=O)OC1=C(c2nc(-c3ccc(Cl)cc3)ncc2C)C(=O)[C@H]2CC[C@@H]1C2 [Compound P18] | 20% | 0% | 0% | 70% | 60% | 10% | 40% | 0% | 80% | 90%
CCOC(=O)COC1=C(c2sc(-c3ccc(Cl)cc3)nc2C)C(=O)[C@H]2CC[C@@H]1C2 [Compound P11] | 0% | 0% | 0% | 0% | 80% | 20% | 0% | 20% | 80% | 80%
COc1cc(F)c(-c2nc(C3C(=O)[C@@H]4CC[C@@H](C4)C3=O)c(C)s2)cc1F (stereo partly shown) [Compound T68] | 60% | 0% | 70% | 0% | 80% | 70% | 0% | 90% | 100% | 100%
CCc1sc(-c2ccc(Cl)cc2)nc1C1=C(OC(=O)C2CC2)C2CCC(C2)C1=O (stereo not shown) [Compound P1] | 80% | 0% | 0% | 100% | 100% | 100% | 0% | 100% | 100% | 100%
